Test results published in patent US20250092360A1, “METHODS AND COMPOSITIONS FOR GENERATING SOMATOSTATIN+ INTERNEURONS FROM HUMAN FOREBRAIN NEURAL PROGENITOR CELLS” (Trailhead Biosystems Inc., priority 2023, published 2025).
Several values for one entry are separate records, joined by “and”; a condition that tells them apart may be missing. Identical values can stand only once. Entries after “also recorded” stand apart in the source; their conditions may differ.

What was measured:
[1] = tested on: forebrain-committed neural progenitor cells; assay: HD-DoE stage 5, 8-factor experiment (GDNF, BDNF, NT-3 ...): Somatostatin expression; type: cell-based, human; details: for impact on expression of Somatostatin: FIG. 24 dynamic profile, in words; for factor contribution, expression of Somatostatin: positive, 8-factor experiment of FIG. 23
Description: To investigate the effects of other factors on differentiation of forebrain-committed neural progenitor cells to Somatostatin interneuron cells, an additional HD-DoE experiment was performed for 3 days on cells that were treated with stage 1 to stage 4 medium for a total of 12 days prior to the new experiment. This experiment, the results of which are shown in FIG. 23, included eight effectors, GDNF, BDNF, NT-3, ß-NGF, Linoleic acid, 5-Cholesten-3β, LIF and TGF-β3. In this model, we focused on maximum expression of Somatostatin gene expressed in Somatostatin (+) interneurons (Urban-Ciecko and Barth (2016) Nature Reviews Neurosci. 17:401-409). When the model was optimized for maximum expression of Somatostatin, BDNF, NT-3, beta-NGF and Linoleic acid had the highest factor contributions, 25.7, 2, 19.9, 23.5, respectively.
Therefore, the latter were excluded in the recipe.

[2] = tested on: stage 2 neural stem cells; assay: Factor criticality analysis, stage 3 recipe; type: cell-based, human; details: other five stage 3 factors present; for expression level of DLX1 when the factor is removed: 220 with all six factors; for expression level of LHX6 when the factor is removed: 240 with all six factors; for expression level of ASCL1 when the factor is removed: 1650 with all six factors
Description: (§1) To assess the impact of the elimination of each validated factor, dynamic profile analysis was used and compared the expression level of genes of interest in absence of each finalized factor while others are present.
In the stage 3 recipe, each of the six finalized factors were removed while the other five factors remained present and the expression levels of ASCL1, DLX1 and LHX6 were assessed compared to the presence of all six factors. […] As expected, in the absence of IGF-1, the value of DLX1 increases to 410, however, ASCL1 and LHX6 decreased to 1390 and 220, respectively.

[3] = tested on: stage 2 neural stem cells; assay: HD-DoE stage 3 experiment: ASCL1, LHX6, DLX1 expression; type: cell-based, human; details: for factor contribution, expression of ASCL1: positive, model optimized for maximum ASCL1 at 1700
Description: To further guide the cells to medial ganglionic eminence progenitor fate, an additional HD-DoE experiment was performed for 3 days on cells that were treated with stage 1 and stage 2 media for total of 6 days prior to start of the experiment. This experiment included 13 effectors, LDN193189, A8301, GNF5837, AZD3147, GSI-XX, Takinib, PD0325901, PD173074, BLU9931, IGF-1, MHY1485, Purmorphamine and Prostratin. In this model, we focused on maximum expression of genes expressed in neuronal progenitor cells in medial ganglionic eminence (MGE) region including ASCL1, LHX6 and DLX1 (Silberberg et al. (2016) Neuron 92:59-74). When the model was optimized for maximum expression of ASCL1 at 1700, A8301, GSI-XX, Purmorphamine and Takinib, which is an inhibitor of TAK1 pathway, had the highest factor contributions, 18.1, 14.1, 12.7 and 10.1 respectively. […] MHY 1485 also had positive contribution however the factor was below 2 (FIG. 9).
Therefore, six effectors including A8301, GSI-XX, Takinib, GNF5837, IGF-1 and Purmorphamine were finalized as ingredients of stage 3 differentiation media. A representative recipe for Stage 3 differentiation is summarized below in Table 3.

[4] = tested on: human pluripotent stem cells; assay: HD-DoE stage 1, additional experiment: FEZF2 expression; type: cell-based; details: dynamic profile, in words
Description: To identify the recipe for stage 1 of differentiation, 96 different combinations of effectors generated using Design-of-Experiments compression through D-optimality were robotically prepared. The effector combinations were prepared in a basal media and were subsequently added to the cells, which were then allowed to differentiate. Three days later RNA extraction was performed, and gene expression was obtained using quantitative PCR analysis. The data were normalized and modeled using partial least squares regression analysis to the effector design, resulting in the generation of gene-specific models, which after model tuning for maximal Q2 predictive power, provided explanation of the effectors ability to control the expression of individual genes, combinatorically, and individually. Solutions within the tested space could then be explored to address desirability. To further enhance the conditions for forebrain differentiation from pluripotency, an additional HD-DoE experiment was performed. Additional gene regulatory models were obtained that were used for preparation of the differentiation protocol. The factors in this experiment included LDN193189, PD173074, BLU9931, Purmorphamine, SC79, MK2206, ZM336372, PD0325901, CHIR99021, XAV939, UCLA-GP130, Tofacitinib and GO6983. […] Dynamic profile analysis was also used to assess the interaction between the effectors.

[5] = tested on: human pluripotent stem cells; assay: Factor criticality analysis, stage 1 recipe (dynamic profile analysis); type: cell-based; details: 3500 with all factors; FIG. 12
Source text: as §1, with “present. […] When Purmorphamine was removed, levels of FEZF2 and SIX3 were decreased to 1000 and below 3000, while levels of OTX2 increased to 6500.” for “present.”

[6] = tested on: medial ganglionic eminence (MGE)-derived neural progenitors; assay: HD-DoE stage 4, 12-factor experiment: SOX6 expression; type: cell-based, human; details: for impact on expression of SOX6: dynamic profile, in words; for factor contribution, expression of SOX6: significant negative effect, model optimized for maximal SOX6
Source text: These effectors are small chemical compounds or proteins. They are commonly used during the differentiation of stem cells to specific cell linage. The choice of the effectors was based on the current literature on forebrain neural induction and differentiation of neural progenitor cells to mature neurons.
To evaluate the effectors on SST differentiation, experiments with 8 or 12 factors were designed to assess the responses of cells to 48 or more combinations of effectors in a range of concentrations. To analyze the models, we focused on expression of genes involved in development and patterning of the forebrain interneurons maturation including LHX6 (Liodis et al. (2007) J. Neurosci. 27:3078-3089; Yuan et al. (2018) Elife 7: e37382), SOX6 (Azim et al. (2009) Nature Neurosci. 12:1238-1247; Batista-Brito et al. (2009) Neuron 63:466-481), DLX5 (de Lombares et al. (2019) Aging (Albany NY) 11:6638; Wang et al. (2010) J. Neurosci. 30:5334-5345) and ASCL1 (Barretto et al. (2020) J. Neurosci. Meth. 334:108548; Shi et al. (2016) J. Biol. Chem. 291:13560-13570). At later stages we focused on interneuron maturation genes including somatostatin and absence of Parvalbumin (Horn and Nicoll (2018) Proc. Natl. Acad. Sci. 115:589-594). The impacts of each effector on gene expression level are defined by a parameter called factor contribution that is calculated for each effector during the modeling.
To identify the recipe for differentiation at stage 4, at least 48 different combinations of effectors were robotically prepared by the Design-of-Experiments compression through D-optimality. The effector combinations were prepared in a basal media and were subsequently added to the cells, which were then allowed to differentiate. Three days later, RNA extraction was performed, and gene expression levels were examined using quantitative PCR analysis. The data was normalized and modeled using partial least squares regression analysis to the effector design, resulting in the generation of gene-specific models, which after model tuning for maximal predictive power, provided explanation of the effectors ability to control the expression of individual genes, combinatorically, and individually. Solutions within the tested space could then be explored to address desirability.
IGF-1 activates the IGF-1 pathway, promotes neuron axonal growth, and establishes the synapse of interneurons. GDNF is the […] and can activate the GDNF pathway. MK2206 is an AKT inhibitor and can inhibit cell proliferation and promote neuronal maturation. PD173074 and BLU-554 are FGFR inhibitors. The FGF pathway is required for the maintenance of neural progenitor cells. Inhibition of the FGFR pathway promotes neural maturation. GSI-XX is a notch pathway inhibitor. Notch pathway inhibits neural progenitor cell differentiation. Inhibition of the Notch pathway promotes neural differentiation.
To find the set of factors that have the potential to optimize SOX6 in this experiment, a new assessment was done through dynamic profile analysis with focus on maximal expression of SOX6.

[7] = tested on: forebrain-committed neural progenitor cells; assay: HD-DoE stage 5, 8-factor experiment (JQ1, Indolactam-V ...): Somatostatin expression; type: cell-based, human
Description: To further guide the differentiation of forebrain-committed neural progenitor cells to somatostatin interneuron cells at stage 5, HD-DoE experiments were performed for 3 days after termination of stage 4 treatment. At this time, we focused on maximum expression of SST that was expressed in Somatostatin (+) interneurons and minimum expression of Parvalbumin that is another type of interneurons. This 8-factor experiment included JQ1, (−)-Indolactam-V, Oleic acid, BDNF, IGF-1, 2-phospho-L-Ascorbic acid, Albumax, MK2206. When the model was maximized for expression of Somatostatin, six effectors were identified that could increase its expression levels, including (−)-Indolactam-V, Oleic acid, BDNF, 2-phospho-L-ascorbic acid, Albumax, and MK2206, as shown in FIG. 21. Using dynamic profile analysis, the results of which are shown in FIG. 22, the model was modified to achieve the maximum expression level of Somatostatin and therefore (−)-Indolactam-V, BDNF, and 2-phospho-L-ascorbic acid were included while JQ-1, Oleic acid, Albumax and MK2206 were excluded. Considering the model at different optimization settings for maximum differentiation of cells toward ventral forebrain, the recipe for stage 5 of differentiation included (−)-Indolactam-V, BDNF, IGF-1, and 2-phospho-L-ascorbic acid from this HD-Doe experiment.

Molecule: 5-Cholesten-3β
- impact on expression of Somatostatin [1]: negative impact

Molecule: Cc1cccc(-c2nn(C(=S)Nc3ccccc3)cc2-c2ccnc3ccccc23)n1 [A8301]
- expression level of DLX1 when the factor is removed [2]: did not change significantly
- expression level of LHX6 when the factor is removed [2]: did not change significantly
- expression level of ASCL1 when the factor is removed [2]: 1000
- impact on expression of ASCL1 ([3]; dynamic profile, in words): positive trends; also recorded: Positive impact
- impact on expression of DLX1 ([3]; dynamic profile, in words): did not have a significant negative impact
- impact on expression of LHX6 ([3]; dynamic profile, in words): positive trends; also recorded: Positive impact
- factor contribution, expression of ASCL1 [3]: 18.1 and 18

Molecule: Cc1ccc(NC(=O)Nc2cc(C(F)(F)F)ccc2F)cc1Nc1ccc2c(c1)NC(=O)/C2=C\c1ccc[nH]1 [GNF5837]
- expression level of DLX1 when the factor is removed [2]: did not have a significant impact
- expression level of LHX6 when the factor is removed [2]: 160
- expression level of ASCL1 when the factor is removed [2]: 1300
- factor contribution, expression of ASCL1 [3]: 9.4

Molecule: COc1ccc2c(c1)c(C1=C(c3c[nH]c4ccccc34)C(=O)NC1=O)cn2CCCN(C)C [GO6983]
- impact on expression of FEZF2 [4]: positive impact
- expression level of FEZF2 when the factor is removed [5]: 3200

Molecule: CCCCC/C=C\C/C=C\CCCCCCCC(=O)O [Linoleic acid]
- impact on expression of Somatostatin [1]: positive effect; also recorded: positive impact
- factor contribution, expression of Somatostatin [1]: 23.5

Molecule: O=[N+]([O-])c1ccc(Nc2nc(N3CCOCC3)nc(N3CCOCC3)n2)cc1 [MHY 1485]
- factor contribution, expression of ASCL1 [3]: below 2
- impact on expression of SOX6 [6]: negative effect
- factor contribution, expression of SOX6 [6]: 9.5

Molecule: CCCCCCCC/C=C\CCCCCCCC(=O)O [Oleic acid]
- impact on expression of Somatostatin ([7]; FIG. 21/22, in words): increase; also recorded: positive impact
- factor contribution, expression of Somatostatin ([7]; positive, 8-factor experiment of FIG. 21): 7.4

Molecule: NC(=O)c1ccc(-c2nc(-c3ccc4c(c3)OCO4)c(-c3ccccn3)[nH]2)cc1 [SB431542]
- impact on expression of SOX6 [6]: negative effect
- factor contribution, expression of SOX6 [6]: 6.2

Molecule: CCCn1/c(=N/C(=O)c2cccc(C(N)=O)c2)[nH]c2ccccc21 [Takinib]
- expression level of DLX1 when the factor is removed [2]: 180
- expression level of LHX6 when the factor is removed [2]: 170
- factor contribution, expression of ASCL1 [3]: 10.1

Molecule: CCCC(CCC)C(=O)O [Valproic acid]
- impact on expression of SOX6 [6]: negative effect
- factor contribution, expression of SOX6 [6]: 4.7

Molecule: LIF: effector tested in the stage 5 HD-DoE experiment
- impact on expression of Somatostatin [1]: negative impact

Molecule: Substance P: member of the tachykinin neuropeptide family
- impact on expression of SOX6 [6]: negative effect
- factor contribution, expression of SOX6 [6]: 5.1

Molecule: beta-NGF: effector tested in the stage 5 HD-DoE experiment
- impact on expression of Somatostatin [1]: positive impact
- impact on expression of Somatostatin ([1]; listed as β-NGF): positive effect
- factor contribution, expression of Somatostatin [1]: 19.9

B1: TGF-β3: effector tested in the stage 5 HD-DoE experiment (protein, UniProt P10600 301-412, looked up)
Transforming growth factor …: ALDTNYCFRNLEENCCVRPLYIDFRQDLGWKWVHEPKGYYANFCSGPCPYLRSADTTHSTVLGLYNTLNPEASASPCCVPQDLEPLTILYYVGRTPKVEQLSNMVVKSCKCS
modifications: Transforming growth factor beta-3
- impact on expression of Somatostatin [1]: negative impact

B2: NT-3: effector tested in the stage 5 HD-DoE experiment (protein, UniProt P20783 139-257, looked up)
Neurotrophin-3: YAEHKSHRGEYSVCDSESLWVTDKSSAIDIRGHQVTVLGEIKTGNSPVKQYFYETRCKEARPVKNGCRGIDDKHWNSQCKTSQTYVRALTSENNKLVGWRWIRIDTSCVCALSRKIGRT
- impact on expression of Somatostatin [1]: positive effect; also recorded: positive impact
- factor contribution, expression of Somatostatin [1]: 2
